Assay results as given in PubChem BioAssay (NCI).
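Following 48 hours of exposure in 96-well plates, responses at five concentrations were used to interpolate endpoints linearly. TGI marks complete inhibition of growth.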

Tests used:
Test in all cases: inhibition of tumour cell growth, NCI panel, 48 h
[1] = tested on: TK-10 renal
[2] = tested on: CAKI-1 renal
[3] = tested on: MALME-3M melanoma
[4] = tested on: UACC-62 melanoma
[5] = tested on: MOLT-4 leukemia
[6] = tested on: NCI-H226 lung
[7] = tested on: HL-60(TB) leukemia
[8] = tested on: OVCAR-8 ovarian
[9] = tested on: SK-OV-3 ovarian
[10] = tested on: HCT-15 colon
[11] = tested on: SN12C renal
[12] = tested on: SF-295 CNS
[13] = tested on: OVCAR-4 ovarian
[14] = tested on: SNB-78 CNS
[15] = tested on: SNB-75 CNS
[16] = tested on: LXFL 529 NSCLC
[17] = tested on: SR leukemia

SMILES | TGI [1] | TGI [2] | TGI [3] | TGI [4] | TGI [5] | TGI [6] | TGI [7] | TGI [8] | TGI [9] | TGI [10] | TGI [11] | TGI [12] | TGI [13] | TGI [14] | TGI [15] | TGI [16] | TGI [17]
CC1(c2cccc3c2C2(O)C=CC4(CCC32)OCCO4)OCCO1 (configuration not stated) | > 100 µM | > 100 µM | > 100 µM | > 100 µM | > 100 µM | > 100 µM | > 100 µM | > 100 µM | > 100 µM | > 100 µM | > 100 µM | > 100 µM | > 100 µM | > 100 µM | > 100 µM | > 100 µM | –
CC(=O)OCCOCNC(=S)N/N=C/c1ccc2ccccc2n1 | > 100 µM | – | > 100 µM | 47.6 µM | > 100 µM | > 100 µM | > 100 µM | > 100 µM | > 100 µM | > 100 µM | > 100 µM | > 100 µM | > 100 µM | > 100 µM | > 100 µM | > 100 µM | > 100 µM
COC(=O)C1CC(=O)CCC1c1ccccc1 (configuration not stated) | > 100 µM | > 100 µM | > 100 µM | > 100 µM | > 100 µM | > 100 µM | > 100 µM | > 100 µM | > 100 µM | > 100 µM | > 100 µM | > 100 µM | > 100 µM | > 100 µM | > 100 µM | > 100 µM | > 100 µM
C#CCSc1nc(N)c2ncn(C3OC(CO)C(O)C3O)c2n1 (configuration not stated) | > 100 µM | – | > 100 µM | – | > 100 µM | – | > 100 µM | > 100 µM | – | > 100 µM | > 100 µM | > 100 µM | > 100 µM | > 100 µM | – | > 100 µM | > 100 µM
O=c1[nH]c(=O)n(C2CC(O)C(CO)O2)cc1OCCc1ccccc1 (configuration not stated) | > 100 µM | > 100 µM | > 100 µM | > 100 µM | > 100 µM | > 100 µM | > 100 µM | > 100 µM | > 100 µM | > 100 µM | > 100 µM | > 100 µM | > 100 µM | – | > 100 µM | – | > 100 µM
O=C1CSC(/C(=C/c2ccccc2)c2nc3ccccc3[nH]2)=N1 | > 100 µM | > 100 µM | > 100 µM | > 100 µM | > 100 µM | 38.4 µM | > 100 µM | > 100 µM | 59.5 µM | > 100 µM | > 100 µM | > 100 µM | > 100 µM | > 100 µM | 50.7 µM | > 100 µM | > 100 µM
Clc1cc(OCc2nn3c(Cc4ccccc4)nnc3s2)ccc1OCc1nn2c(Cc3ccccc3)nnc2s1 | 72.1 µM | 99.6 µM | > 100 µM | > 100 µM | > 100 µM | > 100 µM | > 100 µM | 62.9 µM | > 100 µM | > 100 µM | > 100 µM | 63.9 µM | 59.3 µM | – | 39 µM | – | > 100 µM
C=CCC1C(=O)C(C(=O)OC)N2CCc3c([nH]c4ccccc34)C12 (configuration not stated) | > 100 µM | > 100 µM | > 100 µM | > 100 µM | > 100 µM | – | > 100 µM | > 100 µM | > 100 µM | > 100 µM | > 100 µM | > 100 µM | > 100 µM | – | – | > 100 µM | > 100 µM
OC(CC(CC(O)(C(F)(F)Cl)C(F)(F)Cl)=NNc1ccccc1)(C(F)(F)Cl)C(F)(F)Cl | 9.04 µM | 6.43 µM | 7.14 µM | 4.95 µM | > 10 µM | 7.89 µM | > 10 µM | > 10 µM | > 10 µM | 9.16 µM | > 10 µM | 7.09 µM | > 10 µM | – | 7.69 µM | – | > 10 µM
CCCCCCCC(=O)OC[C@@H](C[As](=O)(O)O)OC(=O)CCCCCCC | – | – | 28.5 µM | 23.4 µM | 18.6 µM | 18.6 µM | 21.7 µM | 37.5 µM | 28.1 µM | 22.4 µM | 23.3 µM | 28.9 µM | 28.9 µM | 30.8 µM | 29.5 µM | 25.3 µM | 40.5 µM
CN1C(OCc2ccccc2)c2c(ccc3c2OCO3)C2C=Cc3cc4c(cc3C21)OCO4 (configuration not stated) | 3.3 µM | 2.2 µM | 2.52 µM | 2.46 µM | 0.678 µM | 2.8 µM | – | 1.05 µM | 2.46 µM | 1.83 µM | 2.61 µM | 2.81 µM | 3.06 µM | 2.04 µM | 2.71 µM | 1.37 µM | –
C[n+]1noc(/N=N\[O-])c1-c1cc(-c2c(/N=N\[O-])on[n+]2C)cc(-c2c(/N=N/[O-])on[n+]2C)c1 | > 100 µM | > 100 µM | > 100 µM | > 100 µM | > 100 µM | > 100 µM | > 100 µM | > 100 µM | > 100 µM | > 100 µM | > 100 µM | > 100 µM | > 100 µM | – | > 100 µM | – | > 100 µM
CO[C@H]1O[C@@H]2CO[C@@H](c3ccccc3)O[C@H]2[C@@H]2CC=CCC[C@]12O | > 100 µM | > 100 µM | 29.3 µM | > 100 µM | 73.3 µM | > 100 µM | 67 µM | > 100 µM | > 100 µM | > 100 µM | > 100 µM | > 100 µM | > 100 µM | – | > 100 µM | – | > 100 µM
COC(=O)Nc1nc2ccc(Oc3ccc4nc(NC(=O)OC)[nH]c4c3)cc2[nH]1 | > 63.7 µM | > 100 µM | > 100 µM | > 100 µM | > 32.8 µM | 2.72 µM | 1.96 µM | > 100 µM | > 100 µM | > 100 µM | > 100 µM | > 100 µM | > 100 µM | – | 2.87 µM | – | > 21.9 µM
O=C(O)c1c[nH]c2c(=O)[nH]cnc12 | > 100 µM | > 100 µM | > 100 µM | > 100 µM | > 100 µM | – | > 100 µM | > 100 µM | > 100 µM | > 100 µM | > 100 µM | > 100 µM | – | > 100 µM | > 100 µM | > 100 µM | > 100 µM
CC1(C)C(c2ccccc2)=NN(O)c2ccccc21 | > 100 µM | > 100 µM | > 100 µM | > 100 µM | > 100 µM | > 100 µM | > 100 µM | > 100 µM | > 100 µM | > 100 µM | – | > 100 µM | > 100 µM | > 100 µM | > 100 µM | > 100 µM | –
CC1=CCC2(C#N)CCC1C2O (configuration not stated) | > 100 µM | > 100 µM | > 100 µM | > 100 µM | > 100 µM | > 100 µM | > 100 µM | > 100 µM | > 100 µM | > 100 µM | > 100 µM | > 100 µM | > 100 µM | > 100 µM | > 100 µM | > 100 µM | > 100 µM
C=C[C@@]1(C)CCC2(O)C(CCC3C2(C)CCC[C@@]3(C)COC(=O)CC(=O)OC)C1 (some centres not stated) | 73.3 µM | > 100 µM | 32.3 µM | 32.3 µM | 36 µM | 55.9 µM | 52.6 µM | 55 µM | > 100 µM | 34.9 µM | 38.2 µM | – | 33.3 µM | 68.9 µM | 48.4 µM | 33 µM | 43.9 µM
COc1ccc(-c2cnoc2-c2ccc(OC)c(OC)c2)cc1OC | 43.2 µM | > 68.1 µM | – | 1.78 µM | 35.9 µM | > 24 µM | 2.88 µM | 40.9 µM | 5.41 µM | 9.01 µM | 33.7 µM | 4.27 µM | > 100 µM | > 26.8 µM | 6.53 µM | > 100 µM | –
CC(=O)NC1=C(C)C(=O)c2c(nc3n2CCC3OC(=O)c2ccccc2)C1=N (configuration not stated) | 9.17 µM | 4 µM | 2.45 µM | 1.09 µM | 5.24 µM | 13.9 µM | 3.74 µM | 8.5 µM | 6.59 µM | 7.47 µM | 3.16 µM | 6.53 µM | 1.2 µM | – | 5.27 µM | – | 7.73 µM
O=C1c2cccc3cc([N+](=O)[O-])cc(c23)C(=O)N1NC1=NCCN1 | > 100 µM | > 100 µM | > 100 µM | > 100 µM | > 100 µM | > 100 µM | > 100 µM | > 100 µM | > 100 µM | > 100 µM | > 100 µM | > 100 µM | > 100 µM | > 100 µM | > 100 µM | > 100 µM | > 100 µM
